Tests used:
Experiment in all cases: KINOMEscan competition binding
Details in all cases: compound 10.0 µM
[1] = biological target: STK10 (human) (UniProt O94804)
[2] = biological target: IKBKE (human) (UniProt Q14164)
[3] = biological target: CDK16 (human) (UniProt Q00536)
[4] = biological target: CDK9 (human) (UniProt P50750)
[5] = biological target: NTRK1 (human) (UniProt P04629)
[6] = biological target: ADCK4 (human) (UniProt Q96D53)
[7] = biological target: STK39 (human) (UniProt Q9UEW8)
[8] = biological target: ERBB2 (human) (UniProt P04626)
[9] = biological target: ABL2 (human) (UniProt P42684)
[10] = test system: EGFR (human), P00533 [752-759 del]
[11] = biological target: DMPK (human) (UniProt Q09013)
[12] = biological target: YSK4 (human) (UniProt Q56UN5)
[13] = biological target: MKNK1 (human) (UniProt Q9BUB5)
[14] = biological target: PRKCD (human) (UniProt Q05655)
[15] = test system: KIT (human), P10721 [L576P]
[16] = biological target: CLK4 (human) (UniProt Q9HAZ1)
[17] = biological target: SRPK1 (human) (UniProt Q96SB4)
[18] = biological target: PRKAA1 (human) (UniProt Q13131)
[19] = biological target: ERN1 (human) (UniProt O75460)
[20] = biological target: SIK2 (human) (UniProt Q9H0K1)
[21] = biological target: FER (human) (UniProt P16591)
[22] = biological target: LCK (human) (UniProt P06239)
[23] = biological target: CSK (human) (UniProt P41240)
[24] = biological target: RPS6KA5 KD1 (human) (UniProt O75582)
[25] = biological target: RPS6KA5 KD2 (human) (UniProt O75582)
[26] = biological target: CDK17 (human) (UniProt Q00537)
[27] = biological target: PIK3CG (human) (UniProt P48736)
[28] = biological target: CDC42BPB (human) (UniProt Q9Y5S2)
[29] = biological target: PIK3CD (human) (UniProt O00329)
[30] = biological target: CDK7 (human) (UniProt P50613)
[31] = biological target: HIPK2 (human) (UniProt Q9H2X6)
[32] = biological target: CDK11B (human) (UniProt P21127)
[33] = biological target: STK17B (human) (UniProt O94768)
[34] = biological target: EPHA7 (human) (UniProt Q15375)
[35] = biological target: BMPR1A (human) (UniProt P36894)
[36] = biological target: MYO3A (human) (UniProt Q8NEV4)
[37] = biological target: HIPK1 (human) (UniProt Q86Z02)
[38] = biological target: LRRK2 (human) (UniProt Q5S007)
[39] = test system: CPK1 (P.falciparum)

Chain of DMPK (human) (Q09013 whole entry, looked up): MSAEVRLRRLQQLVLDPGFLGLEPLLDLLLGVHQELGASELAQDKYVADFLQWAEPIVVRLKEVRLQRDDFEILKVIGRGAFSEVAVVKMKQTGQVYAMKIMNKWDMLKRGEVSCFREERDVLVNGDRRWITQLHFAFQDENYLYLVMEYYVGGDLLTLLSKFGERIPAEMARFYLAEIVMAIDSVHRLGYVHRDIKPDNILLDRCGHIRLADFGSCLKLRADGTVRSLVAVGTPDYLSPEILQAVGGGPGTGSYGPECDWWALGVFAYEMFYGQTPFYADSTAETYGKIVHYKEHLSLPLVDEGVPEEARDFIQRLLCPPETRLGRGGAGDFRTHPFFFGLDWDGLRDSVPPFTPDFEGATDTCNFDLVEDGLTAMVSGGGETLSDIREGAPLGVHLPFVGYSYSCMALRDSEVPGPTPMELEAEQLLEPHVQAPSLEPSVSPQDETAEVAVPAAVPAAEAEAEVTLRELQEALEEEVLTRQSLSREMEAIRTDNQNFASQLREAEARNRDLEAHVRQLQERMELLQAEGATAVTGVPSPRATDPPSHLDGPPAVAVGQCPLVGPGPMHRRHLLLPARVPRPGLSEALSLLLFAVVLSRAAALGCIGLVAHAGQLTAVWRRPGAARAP
Chain of PRKCD (human) (Q05655 whole entry, looked up): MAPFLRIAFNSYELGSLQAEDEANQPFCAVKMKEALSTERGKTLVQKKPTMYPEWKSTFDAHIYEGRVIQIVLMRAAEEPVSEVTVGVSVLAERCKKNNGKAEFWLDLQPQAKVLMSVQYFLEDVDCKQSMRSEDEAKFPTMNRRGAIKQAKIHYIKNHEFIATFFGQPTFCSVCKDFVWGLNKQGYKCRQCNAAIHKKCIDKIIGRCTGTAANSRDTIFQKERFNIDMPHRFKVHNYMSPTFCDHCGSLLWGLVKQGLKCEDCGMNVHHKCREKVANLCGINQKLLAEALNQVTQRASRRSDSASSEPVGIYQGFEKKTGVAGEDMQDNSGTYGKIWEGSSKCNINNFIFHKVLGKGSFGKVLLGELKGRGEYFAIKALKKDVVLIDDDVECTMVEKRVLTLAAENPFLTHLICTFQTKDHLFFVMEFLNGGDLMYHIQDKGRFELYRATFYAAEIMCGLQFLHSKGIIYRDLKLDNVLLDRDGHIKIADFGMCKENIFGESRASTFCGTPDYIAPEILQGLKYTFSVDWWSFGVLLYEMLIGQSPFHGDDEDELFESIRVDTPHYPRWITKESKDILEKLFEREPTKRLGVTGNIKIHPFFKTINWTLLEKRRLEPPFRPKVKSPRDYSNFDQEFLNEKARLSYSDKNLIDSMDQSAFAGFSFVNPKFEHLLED
Chain of CSK (human) (P41240 whole entry, looked up): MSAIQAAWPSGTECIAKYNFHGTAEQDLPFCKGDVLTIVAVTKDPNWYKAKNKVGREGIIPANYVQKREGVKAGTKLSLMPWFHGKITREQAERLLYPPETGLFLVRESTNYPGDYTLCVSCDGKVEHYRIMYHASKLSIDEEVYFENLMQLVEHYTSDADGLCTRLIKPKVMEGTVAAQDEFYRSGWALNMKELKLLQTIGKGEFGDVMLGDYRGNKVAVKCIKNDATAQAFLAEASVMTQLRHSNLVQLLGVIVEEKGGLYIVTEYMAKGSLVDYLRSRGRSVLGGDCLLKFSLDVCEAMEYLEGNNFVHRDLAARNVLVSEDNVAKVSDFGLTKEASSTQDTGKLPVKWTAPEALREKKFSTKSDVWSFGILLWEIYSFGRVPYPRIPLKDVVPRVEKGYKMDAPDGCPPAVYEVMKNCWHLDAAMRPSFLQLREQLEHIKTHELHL
Chain of IKBKE (human) (Q14164 whole entry, looked up): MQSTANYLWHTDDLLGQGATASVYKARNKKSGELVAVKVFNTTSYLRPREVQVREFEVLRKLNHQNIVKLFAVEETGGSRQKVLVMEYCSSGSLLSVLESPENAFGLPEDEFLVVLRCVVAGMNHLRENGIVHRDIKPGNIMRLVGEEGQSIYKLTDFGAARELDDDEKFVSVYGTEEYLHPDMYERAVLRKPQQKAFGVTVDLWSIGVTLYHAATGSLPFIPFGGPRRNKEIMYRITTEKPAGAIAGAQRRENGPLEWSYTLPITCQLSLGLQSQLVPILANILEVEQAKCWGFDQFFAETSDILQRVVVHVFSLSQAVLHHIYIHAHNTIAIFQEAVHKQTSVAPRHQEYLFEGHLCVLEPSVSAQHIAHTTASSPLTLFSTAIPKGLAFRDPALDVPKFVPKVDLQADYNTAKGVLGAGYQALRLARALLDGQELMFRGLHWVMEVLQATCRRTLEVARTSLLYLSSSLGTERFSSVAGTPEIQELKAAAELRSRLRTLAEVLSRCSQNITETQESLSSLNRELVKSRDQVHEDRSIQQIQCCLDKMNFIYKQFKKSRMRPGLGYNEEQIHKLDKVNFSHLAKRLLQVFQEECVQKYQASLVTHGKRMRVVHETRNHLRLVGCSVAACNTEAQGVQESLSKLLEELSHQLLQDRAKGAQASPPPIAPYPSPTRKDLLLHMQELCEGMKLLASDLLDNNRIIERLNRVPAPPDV
Chain of CDK11B (human) (P21127 whole entry, looked up): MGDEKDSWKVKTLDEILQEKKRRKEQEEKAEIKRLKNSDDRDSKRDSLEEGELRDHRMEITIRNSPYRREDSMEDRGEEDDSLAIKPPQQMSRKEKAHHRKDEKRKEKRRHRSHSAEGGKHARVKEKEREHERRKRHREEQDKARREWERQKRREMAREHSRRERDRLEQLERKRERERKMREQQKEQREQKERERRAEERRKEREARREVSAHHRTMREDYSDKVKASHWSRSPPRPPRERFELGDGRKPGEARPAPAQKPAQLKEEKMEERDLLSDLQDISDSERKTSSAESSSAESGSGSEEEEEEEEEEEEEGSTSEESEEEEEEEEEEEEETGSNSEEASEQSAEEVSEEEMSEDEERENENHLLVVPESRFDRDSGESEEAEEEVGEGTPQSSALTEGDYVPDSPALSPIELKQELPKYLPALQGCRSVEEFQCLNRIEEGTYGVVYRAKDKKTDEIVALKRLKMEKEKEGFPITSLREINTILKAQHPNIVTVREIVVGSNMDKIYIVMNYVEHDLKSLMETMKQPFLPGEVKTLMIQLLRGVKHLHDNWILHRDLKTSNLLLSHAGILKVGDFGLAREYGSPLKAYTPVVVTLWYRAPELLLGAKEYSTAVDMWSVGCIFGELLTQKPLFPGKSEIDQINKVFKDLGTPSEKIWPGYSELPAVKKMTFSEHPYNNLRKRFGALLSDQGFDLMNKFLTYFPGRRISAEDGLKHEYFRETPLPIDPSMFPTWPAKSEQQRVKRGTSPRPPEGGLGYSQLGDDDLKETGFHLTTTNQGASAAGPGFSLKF
Chain of MYO3A (human) (Q8NEV4 whole entry, looked up): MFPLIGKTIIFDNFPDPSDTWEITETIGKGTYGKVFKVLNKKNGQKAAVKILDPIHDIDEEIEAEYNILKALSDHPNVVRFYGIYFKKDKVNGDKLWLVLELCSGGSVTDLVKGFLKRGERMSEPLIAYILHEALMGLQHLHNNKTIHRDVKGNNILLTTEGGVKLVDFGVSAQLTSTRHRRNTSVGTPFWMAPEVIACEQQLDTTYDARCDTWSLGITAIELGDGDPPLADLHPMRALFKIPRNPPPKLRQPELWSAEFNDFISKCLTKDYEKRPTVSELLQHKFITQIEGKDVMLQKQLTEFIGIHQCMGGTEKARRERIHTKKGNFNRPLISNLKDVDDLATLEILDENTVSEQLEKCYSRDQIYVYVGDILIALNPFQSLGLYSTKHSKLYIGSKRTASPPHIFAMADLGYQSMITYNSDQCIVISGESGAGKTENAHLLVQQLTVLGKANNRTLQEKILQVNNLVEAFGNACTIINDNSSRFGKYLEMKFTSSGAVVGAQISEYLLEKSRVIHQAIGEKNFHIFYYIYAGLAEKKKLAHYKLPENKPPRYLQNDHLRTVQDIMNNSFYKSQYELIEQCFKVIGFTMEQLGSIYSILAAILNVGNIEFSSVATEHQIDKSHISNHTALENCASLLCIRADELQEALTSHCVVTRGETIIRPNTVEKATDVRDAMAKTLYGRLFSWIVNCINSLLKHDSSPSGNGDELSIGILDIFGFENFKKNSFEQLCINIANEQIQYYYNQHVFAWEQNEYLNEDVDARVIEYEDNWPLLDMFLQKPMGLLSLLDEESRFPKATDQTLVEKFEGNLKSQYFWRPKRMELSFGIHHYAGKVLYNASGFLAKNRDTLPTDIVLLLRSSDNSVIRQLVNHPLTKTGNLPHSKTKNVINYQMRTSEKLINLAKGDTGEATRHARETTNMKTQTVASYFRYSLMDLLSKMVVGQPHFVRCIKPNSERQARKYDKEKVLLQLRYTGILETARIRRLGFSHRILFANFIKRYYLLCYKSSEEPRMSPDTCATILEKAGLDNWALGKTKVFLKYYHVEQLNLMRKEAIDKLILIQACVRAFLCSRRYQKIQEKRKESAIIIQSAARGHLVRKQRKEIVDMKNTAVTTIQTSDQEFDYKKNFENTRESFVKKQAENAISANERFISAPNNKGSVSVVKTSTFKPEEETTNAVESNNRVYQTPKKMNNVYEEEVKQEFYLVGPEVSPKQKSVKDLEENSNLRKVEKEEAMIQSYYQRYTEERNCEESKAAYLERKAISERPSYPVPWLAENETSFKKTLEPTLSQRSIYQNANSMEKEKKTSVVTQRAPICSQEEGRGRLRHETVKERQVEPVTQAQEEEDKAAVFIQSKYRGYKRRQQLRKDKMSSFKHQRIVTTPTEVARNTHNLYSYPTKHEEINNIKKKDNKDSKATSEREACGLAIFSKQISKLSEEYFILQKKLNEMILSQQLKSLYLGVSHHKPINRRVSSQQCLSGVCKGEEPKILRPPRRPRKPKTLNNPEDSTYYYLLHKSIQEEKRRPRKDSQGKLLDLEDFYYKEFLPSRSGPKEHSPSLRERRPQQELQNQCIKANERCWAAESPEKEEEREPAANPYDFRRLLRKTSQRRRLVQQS

Row | Structure (SMILES) | kinase still bound, per cent of control [1] [%] | kinase still bound, per cent of control [2] [%] | kinase still bound, per cent of control [3] [%] | kinase still bound, per cent of control [4] [%] | kinase still bound, per cent of control [5] [%] | kinase still bound, per cent of control [6] [%] | kinase still bound, per cent of control [7] [%] | kinase still bound, per cent of control [11] [%] | kinase still bound, per cent of control [12] [%] | kinase still bound, per cent of control [13] [%] | kinase still bound, per cent of control [14] [%] | kinase still bound, per cent of control [15] [%] | kinase still bound, per cent of control [16] [%] | kinase still bound, per cent of control [18] [%] | kinase still bound, per cent of control [19] [%] | kinase still bound, per cent of control [20] [%] | kinase still bound, per cent of control [21] [%] | kinase still bound, per cent of control [22] [%] | kinase still bound, per cent of control [24] [%] | kinase still bound, per cent of control [25] [%] | other results
1 | CCN(CC)CCCCNc1ncc2c(n1)N(C)C(=O)N(c1c(Cl)c(OC)cc(OC)c1Cl)C2 | 100 | 100 | 100 | 100 | 100 | 100 | 100 | 100 | 100 | 100 | 100 | 2.3 | 100 | 100 | 100 | 100 | 100 | 3 | 100 | 100 | kinase still bound, per cent of control [8]: 100%; kinase still bound, per cent of control [9]: 100%; kinase still bound, per cent of control [10]: 100%; kinase still bound, per cent of control [17]: 100%; kinase still bound, per cent of control [23]: 100%; kinase still bound, per cent of control [26]: 100%; kinase still bound, per cent of control [27]: 100%; kinase still bound, per cent of control [28]: 100%; kinase still bound, per cent of control [29]: 100%; kinase still bound, per cent of control [30]: 100%; kinase still bound, per cent of control [31]: 100%; kinase still bound, per cent of control [32]: 100%; kinase still bound, per cent of control [33]: 100%; kinase still bound, per cent of control [34]: 100%; kinase still bound, per cent of control [35]: 100%; kinase still bound, per cent of control [36]: 100%; kinase still bound, per cent of control [37]: 100%
2 | COc1cc(N2CCN(C)CC2)ccc1Nc1ncc2c(n1)N(C)c1ccccc1C(=O)N2C | 100 | 100 | 100 | 100 | 100 | 100 | 23 | 100 | 100 | 100 | 100 | 100 | 100 | 100 | 100 | 100 | 32 | 100 | 100 | 100 | kinase still bound, per cent of control [8]: 100%; kinase still bound, per cent of control [9]: 100%; kinase still bound, per cent of control [10]: 100%; kinase still bound, per cent of control [17]: 100%; kinase still bound, per cent of control [23]: 100%; kinase still bound, per cent of control [26]: 100%; kinase still bound, per cent of control [27]: 31%; kinase still bound, per cent of control [28]: 100%; kinase still bound, per cent of control [29]: 33%; kinase still bound, per cent of control [30]: 100%; kinase still bound, per cent of control [31]: 100%; kinase still bound, per cent of control [32]: 100%; kinase still bound, per cent of control [33]: 100%; kinase still bound, per cent of control [34]: 100%; kinase still bound, per cent of control [35]: 100%; kinase still bound, per cent of control [36]: 100%; kinase still bound, per cent of control [37]: 100%
3 | C[C@@H](Oc1cc(-c2cnn(C3CCNCC3)c2)cnc1N)c1c(Cl)ccc(F)c1Cl | 0 | 60 | 96 | 88 | 0.1 | 3.4 | 99 | 1.6 | 2.4 | 100 | 100 | 43 | 100 | 8 | 42 | 12 | 2 | 0.15 | 100 | 95 | kinase still bound, per cent of control [9]: 0.85%; kinase still bound, per cent of control [17]: 26%; kinase still bound, per cent of control [26]: 62%; kinase still bound, per cent of control [27]: 100%; kinase still bound, per cent of control [28]: 62%; kinase still bound, per cent of control [29]: 100%; kinase still bound, per cent of control [30]: 1.2%; kinase still bound, per cent of control [31]: 93%; kinase still bound, per cent of control [32]: 0.1%; kinase still bound, per cent of control [33]: 100%; kinase still bound, per cent of control [34]: 0.3%; kinase still bound, per cent of control [35]: 0.15%; kinase still bound, per cent of control [36]: 66%; kinase still bound, per cent of control [38]: 97%; kinase still bound, per cent of control [37]: 78%
4 | COc1cc2ncn(-c3cc(OCc4ccccc4C(F)(F)F)c(C(N)=O)s3)c2cc1OC | 0 | 60 | 100 | 100 | 78 | 71 | 89 | 98 | 34 | 88 | 100 | 30 | 45 | 68 | 75 | 26 | 100 | 34 | 100 | 76 | kinase still bound, per cent of control [8]: 100%; kinase still bound, per cent of control [10]: 100%; kinase still bound, per cent of control [23]: 97%; kinase still bound, per cent of control [26]: 100%; kinase still bound, per cent of control [27]: 18%; kinase still bound, per cent of control [28]: 64%; kinase still bound, per cent of control [29]: 78%; kinase still bound, per cent of control [31]: 89%; kinase still bound, per cent of control [32]: 100%; kinase still bound, per cent of control [33]: 85%; kinase still bound, per cent of control [34]: 79%; kinase still bound, per cent of control [35]: 100%; kinase still bound, per cent of control [36]: 81%; kinase still bound, per cent of control [39]: 75%; kinase still bound, per cent of control [38]: 80%; kinase still bound, per cent of control [37]: 84%
